Experiment [1] concerns patients with advanced disease and cancer. The following applies: regular clinical doses; cited from earlier work.
Experiment [2] deals with LPS-induced serum inflammatory cytokines. Briefly: LPS-induced inflammation model, serum inflammatory cytokines (LEGENDplex, flow cytometry). The class given is in vivo, mouse. To be noted: serum of treated mice. Here is the method: (§1) C57BL/6J mice (6-8 weeks) were purchased from Charles River Laboratories (USA) and acclimatized for at least 1 week before use. All mice were housed in a pathogen-free facility. The mice received LPS for 24 hours. Following 24 hours, mice were treated either with lidocaine alone or methylnaltrexone alone or a combination of both, as shown in Table 1.
(§2) At the conclusion of the study, the blood and tissue samples were collected for further study. The serum was used to determine pro-inflammatory cytokines using the LEGENDplex™ mouse inflammation panel (BioLegend, USA) kit followed by flow cytometry. The lungs and spleen tissue samples were used for hematoxylin and eosin (H&E) staining and immunohistochemical analyses for immune cells, including macrophages and natural killer (NK) cells, B cells, T cells, and its subsets. For histopathology and immunohistochemistry (IHC), tissue samples were prepared by cutting 4-µm sections from the paraffin blocks. IHC staining was performed by methods described earlier. The images were captured using bright field microscopy (Nikon Microscope). Two independent investigators evaluated the H&E and all immunohistochemical staining. For slide scoring, each investigator assessed the tissues and gave a score of 0 (no expression) to 4+ (strong uniform expression) as described previously. The data were expressed either as the mean ± SD or mean ± SEM by using Graph Pad Prism software.
Gram-negative bacterial infections are the main cause of acute lung injury, and LPS, which is the main component of the Gram-negative bacteria cell wall, is the major stimulus for the release of inflammatory mediators. Therefore, we measured the effect of lidocaine alone, methylnaltrexone alone, or a combination of lidocaine and methylnaltrexone on LPS-induced serum inflammatory cytokines profiles. Mouse inflammatory cytokines were measured in serum of control and LPS-challenged mice treated with drugs as described in Table 1, using the LEGENDplex™ mouse inflammation panel (BioLegend, USA) kit followed by flow cytometry as per manufacturer’s specifications. […] However, serum tumor necrosis factor-alpha (TNF-α), monocyte chemoattractant protein 1 (MCP- 1), interleukin 10 (IL-10), interleukin 6 (IL-6), and interleukin 17A (IL-17A) levels were found decreased in mice challenged with LPS and treated with lidocaine and methylnaltrexone together (FIGS. 14C-G). IL-1, IL-6, IL-17A, MCP-1, and TNFα are pro- inflammatory cytokines associated with inflammatory signaling. Taken together, these findings indicate that combined treatment of lidocaine and methylnaltrexone has the potential to suppress inflammatory signaling.
A general note: Flow cytometry measures light scatter and fluorescence of single cells or particles in a stream.

For experiment [3], the system named is p-Src / total Src. In words: Total Src and p-Src expression in MiaPaCa 2 human pancreatic cancer cell line (Western blot). Format: cell-based. The following applies: 10 µM lidocaine, 100 nM methylnaltrexone or both, one hour. As to the method: (§3) • P-Src-Tyr416 (GeneTex # GTX81151) 1:2000 in 5% bovine serum albumin, at room temperature, 4 hours • Total Src (CST # 2108S) 1:3000 in 5% bovine serum albumin, at room temperature, 4 hours
Example 11 evaluated the effect of 10 µM lidocaine (L), 100 nM methylnaltrexone (M) and the combination of 10 µM lidocaine + 100 nM methylnaltrexone (L+M) for 1 hour on total Src and p-Src expression in a human pancreatic cancer cell line (MiaPaCa 2). Experimental conditions were identical to Example 10.
On the technique in general: A western blot detects proteins with antibodies after separation by electrophoresis.

Experiment [4] has as its system LPS-challenged C57BL/6 mice. In words: LPS-induced inflammation model, H&E histopathology of lungs and spleen. The class given is in vivo, mouse. As to the method: as §1, §2
For experiment [5], the system named is p-Src / total Src. Briefly: Total Src and p-Src expression in AsPc 1 human pancreatic cancer cell line (Western blot). Format: cell-based. Here is the method:
Example 10 evaluated the effect of 10 µM lidocaine (L), 100 nM methylnaltrexone (M) and the combination of 10 µM lidocaine + 100 nM methylnaltrexone (L+M) for 1 hour on total Src and p-Src expression in a human pancreatic cancer cell line (AsPc 1).
as §3

The subject of experiment [6] is immune cells in lungs and spleen of LPS-challenged mice. Briefly: LPS-induced inflammation model, IHC staining of immune cells in lungs and spleen. The following applies: lungs and spleen sections. Format: in vivo, mouse. As to the method: as §1
as §2, with “The data were expressed either as the mean ± SD or mean ± SEM by using Graph Pad Prism software.” left out

Experiment [7] deals with p-Src / total Src. Format: cell-based, mouse. Here is the method:
On day 1, mouse KPC-105 cells were cultured until 300,000 cells per well in a 6 well plate were obtained. On day 2, the cells were treated with 0, 0.5, 1,5, 10, 15, 30, 50 and 100 µM lidocaine for 30 minutes. Plates were then collected and washed with phosphate buffered saline and stored at -80° C. Cells were subsequently lysed with 100 µl of radioimmunoprecipitation assay buffer with protease and phosphatase buffers.
(§4) Protein estimation was done using a Bradford assay under the following conditions: • A Western Blot was stripped with 6 M guanidine hydrochloride after p-Src protein blocking to probe with total Src protein. • 10% SDS-PAGE 10 well Blocking: 5% bovine serum albumin for p-Src blot. • P-Src-Tyr416 (GeneTex GTX81151) Rb: 1:1000 in 5% bovine serum albumin, Overnight. • Total Src (Cell Signaling Technology 2108S ) Rb mAb 1:1000 overnight in 5% milk. • GAPDH (Invitrogen# AM4300) : 1:5000 in 5% milk overnight. • Wash: 4x for 5 minutes each with 1x TBST. • Developed using 50% femto for the p-Src protein and homemade ECL substrate for total Src and GAPDH protein.
Example 4 evaluated endogenous Src and p-Src in 10 µM lidocaine treated mouse KPC-105 cells at different time points.
Example 5 evaluated endogenous Src and p-Src in mouse KPC-105 cells treated with 10 10 µM lidocaine for different time points, and increasing doses of methylnaltrexone after one hour of incubation. Western Blot banding patterns were generated using 15 µg /lane (NP40 lysates) 10% SDS PAGE over a 6-hour duration (lidocaine) and a 1-hour duration (methylnaltrexone).
• P-Src-Tyr416 (GeneTex # GTX81151) Rb: 1:1000 in 5% bovine serum albumin o/n at 4° C. • 10 µg /lane (NP40 lysates) 10% SDS PAGE • Total Src (CST # 2108S ) Rb mAb 1:1000 in 5% bovine serum albumin o/n at 4° C.
• P-Src-Tyr416 (GeneTex # GTX81151) Rb: 1:1000 in 5% bovine serum albumin 3 hours at room temperature • 10 µg /lane (NP40 lysates) 10% SDS PAGE • Total Src (CST # 2108S ) Rb mAb 1:1000 in 5% bovine serum albumin 3 hours at room temperature
• P-Src-Tyr416 (GeneTex # GTX81151) 1:2000 in 5% bovine serum albumin, o/n at 4° C. • Total Src (CST # 2108S ) 1:3000 in 5% bovine serum albumin, o/n at 4° C. • Vinculin (ProteinTech) 1:4000 in 5% milk o/n at 4° C.
• P-Src-Tyr416 (GeneTex # GTX81151) 1:2000 in 5% bovine serum albumin, o/n at 4C • Total Src (CST # 2108S ) 1:3000 in 5% bovine serum albumin, o/n at 4C

The test system of experiment [8] is human pulmonary microvascular endothelial cell. To be noted: with 5-FU and bevacizumab; cited from earlier work.
For experiment [9], the system named is p-Src / total Src. Briefly: Total Src and p-Src expression in Panc1 human pancreatic cancer cell line (Western blot). The class given is cell-based. The following applies: 10 µM lidocaine, 100 nM methylnaltrexone or both, time points up to 6 hours, fresh media. Here is the method:
as §3
Example 12 evaluated the effect of 10 µM lidocaine (L), 100 nM methylnaltrexone (M) and the combination of 10 µM lidocaine + 100 nM methylnaltrexone (L+M) on total Src and p-Src expression in a human pancreatic cancer cell line (Panc1) at multiple time points up to 6 hours, in fresh media. Experimental conditions were identical to Example 10.

Experiment [10] concerns receptor protein tyrosine phosphatase. The following applies: human endothelial cells, independent of µ-opioid receptor expression; cited from earlier work.
Experiment [11] has as its system Src protein. In words: p-Src activation in TNF-α treated human pancreatic cancer cell line (Western blot). Format: cell-based. The following applies: TNF-α 20 ng/ml. Here is the method:
(§5) On day 1, KPC-105 mouse and human pancreatic cancer cell lines were cultured until 300,000 cells per well in a 6 well plate were obtained. On day 2, each cell line was treated with 20 ng/ml or mouse or human TNF-α for 2-hours. Cells were then collected and washed with phosphate buffered saline and stored at -80° C. Cells were then lysed with 100 µl of radioimmunoprecipitation assay buffer with protease and phosphatase buffers.
as §4, with “estimation was then performed using a” for “estimation was done using a”, “10% SDS-PAGE with 15 well Blocking:” for “10% SDS-PAGE 10 well Blocking:”, “for p-Src blot P-Src-Tyr416 (GeneTex” for “for p-Src blot. • P-Src-Tyr416 (GeneTex”, “overnight in 5 % milk. •” for “overnight in 5% milk. •”, “homemade ECL for total” for “homemade ECL substrate for total”

In experiment [12] the test system is Src protein. In words: p-Src activation in TNF-α treated KPC-105 mouse cell line (Western blot). The class given is cell-based. To be noted: TNF-α 20 ng/ml. Here is the method: as §5
as §4, with “estimation was then performed using a” for “estimation was done using a”, “10% SDS-PAGE with 15 well Blocking:” for “10% SDS-PAGE 10 well Blocking:”, “for p-Src blot P-Src-Tyr416 (GeneTex” for “for p-Src blot. • P-Src-Tyr416 (GeneTex”, “overnight in 5 % milk. •” for “overnight in 5% milk. •”, “homemade ECL for total” for “homemade ECL substrate for total”

Where [13] appears, read: Example 8, 10 µM lidocaine, 100 nM methylnaltrexone or both, different time points.

Read-outs that look alike come from different tables or passages of the source.

The values below come from patent US20230158015A1, “DRUG COMBINATIONS FOR INHIBITING INFLAMMATION AND SRC KINASE ACTIVATION FOLLOWING INVASIVE SURGICAL PROCEDURES” (SINTETICA S.A., priority 2020, published 2023).

`C[N@+]1(CC2CC2)CC[C@]23c4c5ccc(O)c4O[C@H]2C(=O)CC[C@@]3(O)[C@H]1C5` [methylnaltrexone]: the overall survival result in experiment [1] is reported as “increased overall survival”. Further, the “serum interferon-gamma (IFNγ) level” value in experiment [2] is “insignificant changes”. The “serum interleukin 1 alpha (IL-1α) level” value in [2] is recorded as “insignificant changes”. Besides, the p-Src result in the experiment with p-Src / total Src [3] is “attenuated p-Src”; in the experiment on p-Src / total Src [9], “initially decreased p-Src at 30 minutes and 1 hour”. The “H&E staining, histopathology of lungs” value in experiment [4] (LPS challenged mice, lungs) is “perivascular edema and accumulation of mixed cell infiltration within blood, and lymphatic vessels”. For the same compound, the “histological examination of spleen” value in [4] (LPS challenged mice, spleen) is recorded as “increased number of erythrocytes in the red pulp, along with mild edema”. Moreover, the “LPS-induced inflammation (overall conclusion)” value in experiment [4] (mouse model, drug alone) was “partially mitigate”. Also, the “Src after Src normalization” value in the experiment on p-Src / total Src [5] (100 nM methylnaltrexone exposure, preliminary results) is listed as “no increase in Src”. Further, the p-Src activity entry with p-Src / total Src [5] (10 µM lidocaine, 100 nM methylnaltrexone or both, one hour) is listed as “attenuated p-Src activity”. Also, in experiment [6], the “F4/80 positive area (macrophages)” value is on record as “partially decreased”. The “total Src” value was “not affected” with p-Src / total Src [7] (Example 5, 10 µM lidocaine over 6 hours, increasing doses of methylnaltrexone, 1 hour) and “decreased total Src after 1 hour of exposure” in the experiment on p-Src / total Src [7] (setting [13]). Moreover, the “concentrations attenuating Src phosphorylation” value in the experiment on p-Src / total Src [7] (Example 5, 1 hour incubation) was “above 50 nM”. Moreover, the “phosphorylation of Src” value is “attenuates phosphorylation of Src in KPC-105 cells starting at 2 hours” in the experiment with p-Src / total Src [7] (Example 6, 100 nM methylnaltrexone, different time points) and “attenuated phosphorylation of Src after 1 hour of exposure” in the experiment with p-Src / total Src [7] (setting [13]). In [8], the “inhibition of VEGF-induced cell proliferation and migration” value was “synergistic effect”. In experiment [10], the “receptor protein tyrosine phosphatase activity” value was “increased”.
Take `O=C1CC[C@@]2(O)[C@H]3Cc4ccc(O)c5c4[C@@]2(CCN3CC2CC2)[C@H]1O5` [naltrexone]: in experiment [10], the “receptor protein tyrosine phosphatase activity” value is “not”.
On to TNF-α, for which the “time of maximum activation of Src protein” value in the experiment on Src protein [11] and in the experiment on Src protein [12] was 45 min in each case.
